Data set [1] is described as follows: Pharmacokinetics of Cy5 dye and nanobody-Cy5 conjugates in healthy mice. Type of data set: in vivo, mouse. To be noted: 2 mg/kg I.V., healthy female C57BL/6 mice. The protocol:
Pharmacokinetics and Ex Vivo Imaging Experiments. Healthy (Balb/c or C57BL/6) and EMT6 tumor bearing (Balb/c) mice were injected with 100 μL of Cy5 (either as free dye or as a nanobody conjugate) at a dose of 2 mg/kg intravenously. Blood draws were taken using heparinized capillary tubes (DWK Life Sciences) at discrete time points up to five days after injection. 1 μL of blood was mixed with 50 μL of PBS, centrifuged, and the diluted plasma was collected for analysis. Prescence of Cy5 was determined by fluorescence intensity using a plate reader, with an excitation wavelength of 645 nm and an emission wavelength of 675 nm. Pharmacokinetic analysis was performed in GraphPad Prism (V10) using either a one-phase decay or two-phase decay, in which the reported half-life is the second phase (elimination). Biodistribution studies were performed by excising and weighing hearts, lungs, livers, spleens, kidneys, and tumors. Tissue were washed in 1× PBS and transferred to the stage of the IVIS Lumina Ill (PerkinElmer). Fluorescence (radiant efficiency) was measured with a maximum value of 1.56×10^10, and a minimum of 8.21×10^8, and areas were drawn for organs to generate average radiant efficiency values (per cm^2) using the Living Image software (version 4.5). […] Images were taken on the IVIS and luminescence was quantified as total radiant flux (p/s) for each set of lungs.

The subject of the next data set is EMT6 tumors. Description: Orthotopic EMT6 breast tumor model. Type of data set: in vivo, mouse. To be noted: nanobody carriers I.V. 1.25 μg agonist; ICB 100 μg intraperitoneally; Balb/c. The protocol:
Evaluation of Nanobodies in Tumor Models. 6-8-week C57BL/6 mice (The Jackson Laboratory) were inoculated with B16.F10, B16.F10-LUC, or B16.F10-OVA models. For EMT6 models, 6-8 week Balb/C female mice (The Jackson Laboratory) were used. Tumors were generated in B16.F10 and B16.F10-OVA models by subcutaneous injection of 5×10^5 cancer cells, suspended in 100 μL of PBS, at the right flank side of the mouse. B16.F10-LUC inoculations were performed by intravenous (I.V.) injection at a volume of 100 μL and using 1×10^6 cancer cells. EMT6 inoculations were orthotopic and placed at the left-side 4th mammary fat pad at a volume of 100 μL and using […]. When the volume of tumors reached ~75-100 mm^3, mice were treated by I.V. injection of nanobodies or free diABZT compound 3 (using 40% PEG400 as an excipient for free diABZI, Sigma), or intraperitoneal (I.P) injection of commercial anti-PD-L1 IgG (Clone BEO101, Bio X Cell) (100 μL per injection). Tumor volume calculations were calculated using Vtumor=L×W2×0.5, in which Vtumor is tumor volume, L is tumor length, and W is tumor width. Tumor volume, total murine mass, and murine well-being were recorded for the duration of the study. The endpoint for maximum tumor volume (i.e. survival) during studies was 1500 mm^3.

The conditions of data set [2]: cited from earlier work.

Data on three compounds can be found in patent US20260216361A1, “NANOBODY-DRUG CONJUGATES AND METHODS OF PREPARING THEREOF” (Vanderbilt University, priority 2022, published 2026).

Read-outs that look alike come from different tables or passages of the source.

For `CC1(C)C(/C=C/C=C/C=C2/N(CCCCCC(=O)NCCC(=O)N3Cc4ccccc4C#Cc4ccccc43)c3ccc(S(=O)(=O)O)cc3C2(C)C)=[N+](CCCS(=O)(=O)[O-])c2ccc(S(=O)(=O)O)cc21` [DBCO-Cy5, reference compound], the elimination half-life result in data set [1] is “approximately 5 minutes”.
Take `CCn1nc(C)cc1C(=O)Nc1nc2cc(C(N)=O)cc(OC)c2n1C/C=C/Cn1c(NC(=O)c2cc(C)nn2CC)nc2cc(C(N)=O)cc(OCCCN3CCOCC3)c21` [diABZI, reference compound]: in the data set with EMT6 tumors, the tumor growth entry is “did not confer a therapeutic benefit”. Further, the half-life in data set [2] (in vivo) was ~ 90 minutes.
serum albumin: in data set [2] (in mice), the half-life is 35 to 40 h.
